Laboratory results as given in patent US20080194654A1, “HYDROXY-SUBSTITUTED ARYL SULFAMIDE DERIVATIVES AND METHODS OF THEIR USE” (Wyeth, priority 2006, published 2008).

Molecular target: hDAT (Homo sapiens, UniProt Q01959)
Assay: Dopamine transporter (hDAT) membrane binding assay

Sequence of hDAT (Q01959 whole entry): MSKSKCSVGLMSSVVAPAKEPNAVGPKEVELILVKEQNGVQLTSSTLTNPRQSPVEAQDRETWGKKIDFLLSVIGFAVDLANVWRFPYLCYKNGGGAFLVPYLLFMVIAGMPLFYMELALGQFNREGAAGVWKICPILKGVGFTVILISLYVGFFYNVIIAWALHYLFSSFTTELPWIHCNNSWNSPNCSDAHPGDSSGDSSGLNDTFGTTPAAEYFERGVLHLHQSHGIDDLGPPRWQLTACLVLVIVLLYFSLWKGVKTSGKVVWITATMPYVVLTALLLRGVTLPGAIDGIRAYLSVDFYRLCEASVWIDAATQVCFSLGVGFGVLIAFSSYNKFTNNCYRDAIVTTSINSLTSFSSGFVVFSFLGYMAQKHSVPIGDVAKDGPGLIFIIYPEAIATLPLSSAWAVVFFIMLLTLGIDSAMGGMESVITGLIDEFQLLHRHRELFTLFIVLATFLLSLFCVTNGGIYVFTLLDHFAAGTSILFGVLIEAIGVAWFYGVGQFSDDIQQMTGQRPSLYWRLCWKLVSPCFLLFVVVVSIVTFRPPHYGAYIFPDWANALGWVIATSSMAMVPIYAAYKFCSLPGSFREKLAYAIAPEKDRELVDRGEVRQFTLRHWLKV

IC50: > 1000 nM
SMILES: CCNC[C@@H](O)CCN1c2ccccc2N(c2ccccc2F)S1(=O)=O
